One data set concerns A-431. In words: Cell cycle arrest in A431 cells by accumulation at G2/M phase. Type of data set: functional, cell-based. The settings on record: Homo sapiens.
For data set [1], the target named is Tubulin. The experiment in a line: Inhibition of tubulin polymerization. Type of data set: functional, Homo sapiens.
Data set [2] can be described thus: AUC (0-4 h) in mouse at 60 mg/kg, ip. The data set is classed as ADME, organism-based. Further details: time < 4 hr, dose 60 mg/kg, route intraperitoneal. The settings on record: plasma.
For data set [3], the target named is Tubulin. The experiment in a line: Displacement of [3H]colchicine from tubulin at 65 nM. Type of data set: protein-complex assay, Homo sapiens. (In a radioligand displacement assay an active substance lowers the binding of a labelled ligand.)
Another data set concerns NCI/ADR-RES. The experiment in a line: Cell cycle arrest in NCI/ADR (MDR) cells by accumulation at G2/M phase. Type of data set: functional, cell-based. The settings on record: Homo sapiens.
Data set [4] in a line: Cmax in mouse at 60 mg/kg, ip. Type of data set: ADME, organism-based. Further details: dose 60 mg/kg, route intraperitoneal. The note with it: in vivo.
Data set [5] can be described thus: Half life in mouse at 60 mg/kg, ip. The data set is classed as ADME, organism-based. Further details: dose 60 mg/kg, route intraperitoneal. The note with it: in vivo.
Data set [6] is described as follows: Cmax in mouse at 60 mg/kg, po. The data set is classed as ADME, organism-based. Further details: dose 60 mg/kg, route oral. The settings on record: in vivo.
Data set [7] is described as follows: AUC (0-4 h) in mouse at 60 mg/kg, po. Type of data set: ADME, organism-based. Set-up: time < 4 hr, dose 60 mg/kg, route oral. The settings on record: plasma.
Data set [8] is described as follows: Half life in mouse at 60 mg/kg, po. The settings on record: in vivo. Set-up: dose 60 mg/kg, route oral. The data set is classed as ADME, organism-based.

A value given as a limit tells only on which side of the number the result lay.

Usually EC50 stands for the concentration at which the effect is half-maximal. A high value points to a need for much substance. As a reminder, the IC50 is the point on the concentration scale where inhibition reaches its midpoint. A high value points to a need for much substance. Regarding `FC1(F)Oc2ccc(Nc3nnc(-c4cccnc4NCc4ccccn4)o3)cc2O1`, in the data set on A-431, the EC50 is 780 nM. At Tubulin [1], this compound displayed an IC50 of 13300 nM.

In the data set with A-431, `Fc1cnc(NCc2ccccn2)c(-c2nnc(Nc3ccc4c(c3)OCCO4)o2)c1` registered an EC50 of 82 nM. Also, at Tubulin [1], the IC50 was 3400 nM.

What is called AUC(0-t) is exposure summed from dosing to a finite time, without extrapolation to infinity. Low values mean low exposure, high ones high exposure. Broadly, the Cmax is the peak of the concentration-time curve. The term half-life denotes the time needed for the level to fall by half in the phase considered. A higher half-life goes with slow decline. The compound `c1cnc(NCc2ccncc2)c(-c2nnc(Nc3ccc4c(c3)OCO4)o2)c1` returned an AUC(0-t) at 4 h in [2] of 52.6 µM·h. Also, the figures for the EC50 with A-431 and in the data set with NCI/ADR-RES were 20 nM and 7.8 nM, respectively. In addition, the IC50 at Tubulin [1] amounted to 1000 nM; on Tubulin [3], 30 nM. In data set [4], this compound had a Cmax of 15.1 µM. Besides, in data set [5], the half-life was 2.6 h.

The compound `c1ccc(CNc2ncccc2-c2nnc(Nc3ccc4c(c3)OCO4)o2)nc1` registered an AUC(0-t) at 4 h in data set [2] of 21.5 µM·h. Also, the EC50 with A-431 came to 49 nM; with NCI/ADR-RES, 256 nM. The IC50 came to 1700 nM against Tubulin [1] and 30 nM on Tubulin [3]. Besides, the peak level in data set [4] (Cmax) was 4.9 µM. This compound also gave a half-life in data set [5] of 4.1 h.

For `c1ccc(CNc2ccncc2-c2nnc(Nc3ccc4c(c3)OCCO4)o2)nc1`, the IC50 at Tubulin [1] was > 30000 nM.

In the data set on A-431, `c1coc(CNc2ncccc2-c2nnc(Nc3ccc4c(c3)OCO4)o2)c1` returned an EC50 of 130 nM. At Tubulin [1], this compound returned an IC50 of 4900 nM.

`c1cnc(NCc2ccc3c(c2)OCCO3)c(-c2nnc(Nc3ccc4c(c3)OCCO4)o2)c1` returned an EC50 in the data set with A-431 of 57 nM. Moreover, the IC50 on Tubulin [1] was found to be 1800 nM.

With `CN(c1ccc2c(c1)OCCO2)c1nnc(-c2cccnc2NCc2ccccn2)o1`, the IC50 against Tubulin [1] was > 30000 nM.

`Fc1ccc(CNc2ncccc2-c2nnc(Nc3ccc4c(c3)OCCO4)o2)cc1` came in with an EC50 with A-431 of 60 nM. The same compound came in with an IC50 on Tubulin [1] of 5000 nM.

In the data set with A-431, `Fc1ccc(CNc2ncccc2-c2nnc(Nc3ccc4c(c3)OCCO4)o2)cc1F` showed an EC50 of 15 nM. On Tubulin [1], this compound had an IC50 of 700 nM.

In turn, `COc1ccc(Nc2nnc(-c3cccnc3NCc3ccccn3)o2)cc1` displayed an EC50 in the data set with A-431 of 20 nM. At Tubulin [1], this compound returned an IC50 of 1500 nM.

For the compound `c1ccc(CNc2ncccc2-c2nnc(Nc3ccc4c(c3)OCCO4)o2)nc1`, the AUC(0-t) at 4 h came out at 31.2 µM·h in data set [2] and 8.8 µM·h in data set [7]. Besides, the EC50 was found to be 16 nM in the data set with A-431 and 27 nM with NCI/ADR-RES. In addition, the Cmax is 3.8 µM in [6] and 12.5 µM in data set [4]. Besides, the IC50 against Tubulin [1] was found to be 1900 nM; on Tubulin [3], 190 nM. The half-life in data set [8] is 2.2 h; in data set [5], 2.7 h.

In the data set on A-431, `CS(=O)(=O)Nc1ccc(CNc2ncccc2-c2nnc(Nc3ccc4c(c3)OCO4)o2)cc1` gave a half-maximal effective concentration (EC50) of 71 nM. Also, 3800 nM corresponded to half-maximal inhibition on Tubulin [1] (IC50).

For the compound `c1cnc(NCc2cnccn2)c(-c2nnc(Nc3ccc4c(c3)OCCO4)o2)c1`, a half-maximal effect with A-431 (EC50) was put at 31 nM. The same compound showed an IC50 on Tubulin [1] of 2200 nM.

On to `c1ccc(CNc2ccccc2-c2csc(Nc3ccc4c(c3)OCCO4)n2)nc1`, for which the IC50 on Tubulin [1] was > 30000 nM.

The compound `CS(=O)(=O)Nc1ccc(CNc2ncccc2-c2nnc(Nc3ccc4c(c3)OCCO4)o2)cc1` registered an EC50 in the data set on A-431 of 23 nM. Further, it took 2000 nM to reach half-maximal inhibition against Tubulin [1] (IC50).

Consider `c1cnc(NCC2CCCO2)c(-c2nnc(Nc3ccc4c(c3)OCO4)o2)c1` (centres undefined), for which the EC50 in the data set on A-431 amounted to 330 nM. At Tubulin [1], this compound yielded an IC50 of 15500 nM.

Compound `COc1cc(Nc2ncccc2-c2n[nH]c(Nc3ccc4c(c3)OCO4)n2)cc(OC)c1` showed an AUC(0-t) at 4 h in data set [2] of 13.6 µM·h. In [4], this compound came in with a Cmax of 7.3 µM. Besides, the half-life in data set [5] was 0.62 h.

In the data set with A-431, `c1cnc(NCc2cnccn2)c(-c2nnc(Nc3ccc4c(c3)OCO4)o2)c1` registered an EC50 of 210 nM. The compound also showed an IC50 at Tubulin [1] of 9600 nM.

In turn, `c1cncc(CNc2ncccc2-c2nnc(Nc3ccc4c(c3)OCO4)o2)c1` had an EC50 in the data set with A-431 of 31 nM. The compound further gave an IC50 against Tubulin [1] of 8800 nM.

For the compound `FC(F)(F)c1ccc(-c2nnc(Nc3ccc4c(c3)OCCO4)o2)c(NCc2ccccn2)n1`, the IC50 against Tubulin [1] was > 30000 nM.

For `CC(=O)O[C@H]1C(=O)[C@@]2(C)[C@H]([C@H](OC(=O)c3ccccc3)[C@]3(O)C[C@H](OC(=O)[C@H](O)[C@@H](NC(=O)c4ccccc4)c4ccccc4)C(C)=C1C3(C)C)[C@]1(OC(C)=O)CO[C@@H]1C[C@@H]2O` [PACLITAXEL], the EC50 with A-431 was 9 nM; in the data set with NCI/ADR-RES it was > 10000 nM.

Compound `Cc1ccc(-c2nnc(Nc3ccc4c(c3)OCCO4)o2)c(NCc2ccccn2)n1` gave an EC50 in the data set on A-431 of 99 nM. Besides, on Tubulin [1], the IC50 was found to be 2400 nM.

For `Fc1ccc(CNc2ncccc2-c2nnc(Nc3ccc4c(c3)OCO4)o2)cc1F`, a half-maximal response in the data set on A-431 (EC50) required 51 nM. Also, the IC50 against Tubulin [1] is 2200 nM.

In turn, `c1ccc(CNc2ccccc2-c2nnc(Nc3ccc4c(c3)OCCO4)o2)nc1` showed an AUC(0-t) at 4 h in data set [2] of 17.2 µM·h. For the same compound, the EC50 with A-431 was determined as 14 nM; in the data set with NCI/ADR-RES, 37 nM. For the same compound, the figures for the IC50 against Tubulin [1] and on Tubulin [3] were 1200 nM and 390 nM, respectively. Also, the Cmax in data set [4] stood at 6.4 µM. Further, the half-life in data set [5] is 1.5 h.

As to `c1ccc(CNc2ccccc2-c2c[nH]c(Nc3ccc4c(c3)OCCO4)n2)nc1`, on Tubulin [1], the IC50 was > 30000 nM.

Compound `c1cnc(NCc2ccc3c(c2)OCO3)c(-c2nnc(Nc3ccc4c(c3)OCCO4)o2)c1` returned a half-maximal effective concentration (EC50) with A-431 of 18 nM. On Tubulin [1], this compound showed an IC50 of 500 nM.

`c1ccc(CNc2ccccc2-c2cnc(Nc3ccc4c(c3)OCCO4)o2)nc1` registered an AUC(0-t) at 4 h in data set [2] of 14.4 µM·h. Also, the EC50 with A-431 was 35 nM; in the data set with NCI/ADR-RES, 103 nM. The figures for the IC50 at Tubulin [1] and at Tubulin [3] were 1400 nM and 10 nM, respectively. The compound also showed a Cmax in [4] of 4.6 µM. In [5], this compound showed a half-life of 2.43 h.

The compound `c1cnc(NCC2CCCO2)c(-c2nnc(Nc3ccc4c(c3)OCCO4)o2)c1` (centres undefined) showed an AUC(0-t) at 4 h in data set [2] of 26.3 µM·h. Besides, the concentration for a half-maximal effect (EC50) in the data set on A-431 came to 160 nM; with NCI/ADR-RES, 128 nM. Also, the IC50 worked out at 1700 nM against Tubulin [1] and 390 nM on Tubulin [3]. In addition, the peak level in data set [4] (Cmax) was 16.4 µM. Moreover, the half-life in data set [5] is 0.78 h.

`COc1ccc(CNc2ncccc2-c2nnc(Nc3ccc4c(c3)OCCO4)o2)cc1`: in the data set with A-431, a half-maximal effect (EC50) was put at 23 nM. At Tubulin [1], this compound displayed a 50% inhibitory concentration (IC50) of 1600 nM.

Take `COc1ccc(/C=C\c2cc(OC)c(OC)c(OC)c2)cc1O` [COMBRETASTATIN A4]: the figures for the EC50 in the data set on A-431 and in the data set with NCI/ADR-RES were 3.5 nM and 1.5 nM, respectively.

For `c1cncc(CNc2ncccc2-c2nnc(Nc3ccc4c(c3)OCCO4)o2)c1`, in data set [2], the AUC(0-t) at 4 h worked out at 6.7 µM·h. The EC50 was 13 nM with A-431 and 19 nM with NCI/ADR-RES. Moreover, the IC50 is 700 nM against Tubulin [1] and 30 nM at Tubulin [3]. For the same compound, the Cmax in [4] amounted to 6.5 µM. In [5], this compound showed a half-life of 0.8 h.

In the case of `c1ccc(CNc2ccsc2-c2nnc(Nc3ccc4c(c3)OCCO4)o2)nc1`, the AUC(0-t) at 4 h in data set [2] was 102 µM·h. Further, the figures for the EC50 in the data set on A-431 and with NCI/ADR-RES were 22 nM and 46 nM, respectively. In addition, the figures for the IC50 against Tubulin [1] and on Tubulin [3] were 4400 nM and 75 nM, respectively. The compound also yielded a Cmax in data set [4] of 59.2 µM. The same compound had a half-life in [5] of 0.75 h.

Regarding `c1ccc(CNc2nccnc2-c2nnc(Nc3ccc4c(c3)OCCO4)o2)nc1`, the EC50 in the data set with A-431 turned out to be 75 nM. Besides, on Tubulin [1], it took 2000 nM to reach half-maximal inhibition (IC50).

Compound `c1ccc(COc2ncccc2-c2nnc(Nc3ccc4c(c3)OCCO4)o2)nc1` had an EC50 in the data set with A-431 of 260 nM. The IC50 on Tubulin [1] is 18100 nM.

The compound `c1coc(CNc2ncccc2-c2nnc(Nc3ccc4c(c3)OCCO4)o2)c1` showed an EC50 with A-431 of 45 nM. On Tubulin [1], this compound gave an IC50 of 2000 nM.

For the compound `c1ccc(CNc2ncncc2-c2nnc(Nc3ccc4c(c3)OCCO4)o2)nc1`, the IC50 on Tubulin [1] is > 30000 nM.

For `c1cnc(NCc2ccncc2)c(-c2nnc(Nc3ccc4c(c3)OCCO4)o2)c1`, in the data set with A-431, the response was half-maximal at 18 nM (EC50). This compound registered an IC50 on Tubulin [1] of 29900 nM.
